Results as given in PubChem BioAssay (NCI).
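Briefly, cells in 96-well plates were exposed to five compound concentrations for 48 h, and endpoints were estimated by linear interpolation. TGI is the concentration that stops growth completely.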 *1 amine or outer side, *2 acyl side, *3 side chain or, on linkers, in order; H or OH if unused. Where a SMILES comes first, the peptide text is derived from it. [ ]: non-standard residue; d: D form. The star is where a group is joined. X31 = CC(=O)N(C)SCC(N[*:1])C(=O)[*:2]; Fmoc = O=C(OCC1c2ccccc2-c2ccccc21)*; For = O=C*

How the values were obtained:
Assay in all cases: growth of human tumour cells (NCI), 48 h
[1] = test system: HOP-62 NSCLC
[2] = test system: U251 CNS
[3] = test system: MALME-3M melanoma
[4] = test system: HS 578T breast
[5] = test system: UACC-257 melanoma
[6] = test system: A549 NSCLC
[7] = test system: MOLT-4 leukemia
[8] = test system: CAKI-1 renal
[9] = test system: BT-549 breast
[10] = test system: KM12 colon
[11] = test system: SK-MEL-28 melanoma
[12] = test system: A498 renal
[13] = test system: 786-0 renal
[14] = test system: K-562 leukemia
[15] = test system: HOP-92 NSCLC

SMILES	TGI [1] [µM]	TGI [2] [µM]	TGI [3] [µM]	TGI [4] [µM]	TGI [5] [µM]	TGI [6] [µM]	TGI [7] [µM]	TGI [8] [µM]	TGI [9] [µM]	TGI [10] [µM]	TGI [11] [µM]	TGI [12] [µM]	TGI [13] [µM]	TGI [14] [µM]	TGI [15] [µM]
NCCC1([N+](=O)[O-])CCNCC1	> 100	> 100	> 100	> 100	> 100	> 100	> 100	> 100	> 100	> 100	> 100	> 100	> 100	> 100	> 100
Cc1ccc(N2C(=O)C(=O)N(/N=C3\C(=O)Nc4ccccc43)C2=S)cc1	> 100	> 100	> 100	> 100	> 100	> 100	> 100	> 100	> 100	> 100	> 100	> 100	> 100	> 100	> 100
CCN1C(=O)CS/C1=N\NC(=O)CSc1nc2ccccc2c(=O)n1CC	> 100	> 100	> 100	> 100	> 100	> 100	> 100	> 100	> 100	> 100	> 100	> 100	> 100	> 100	
CC(=O)N(C)SCC(NC(=O)C(Cc1ccccc1)NC(=O)OCC1c2ccccc2-c2ccccc21)C(=O)NC(Cc1ccccc1)C(=O)NC(Cc1cn(C=O)c2ccccc12)C(=O)NC(CCCCNC(=O)OCC1c2ccccc2-c2ccccc21)C(=O)NC(C(=O)NC(CSN(C)C(C)=O)C(=O)NC(C(N)=O)C(C)O)C(C)O (stereo not drawn) (Fmoc-F[X31]FW(For)K(Fmoc)T[X31]T-NH2; configuration not given here)	> 100	> 100	> 100	> 100	> 100	> 100	> 100		> 100	64.5	> 100		> 100	> 100	62.4
C=C(CC)C[C@@H]1C[C@]2(C(=O)OC)c3[nH]c4ccccc4c3CCN2C1=O	34	40.8	72.5	41.1	41.9	32.4	> 100	48.6	43.7	58.9	39.9	41.1	33.5	58.1	38.1
C#CC(O)Cc1ccc(OC)c2occc12 (stereo not drawn)	> 100	> 100	> 100	> 100	> 100	> 100		> 100	> 100	> 100		> 100	> 100	> 100	> 100
COC(=O)CCC(C)[C@H]1CCC2C3C(C[C@H](OC(C)=O)[C@@]21C)[C@@]1(C)CCC2(C[C@H]1C[C@H]3OC(C)=O)OOC1(CCCCC1)OO2 (stereo partly drawn)	8.31	> 100	97.4	63.5	> 100	70.7	> 100	> 100	> 100	> 100	> 100	> 100	48.6	> 100	26.5
Cn1c(=O)sc2cc(C(=S)N3CCN(c4ccccc4)CC3)ccc21	42.8	35.1	> 100	> 100	> 100		> 100	> 100	> 100	> 100	> 100	> 100	> 100	> 100	
COC(=O)[C@@H]1[C@H](O)CC[C@H]2[C@@]1(C)CC[C@@H](C)[C@]2(COC(C)=O)CC(=O)c1ccoc1		> 50		> 50	> 50	> 50	> 50	> 50	> 50	> 50	> 50	> 50	> 50		> 50
CSc1nc(-c2ccc(Cl)cc2)c(C#N)c(=O)[nH]1	> 100	> 100		> 100	> 100	> 100	> 100	> 100	> 100	> 100	> 100	> 100	> 100	> 100	97.7
Cc1ccc(Nc2cn(COCc3ccccc3)c(=O)[nH]c2=O)cc1	> 100	> 100		> 100	> 100	> 100	> 100	> 100	82	> 100	> 100	> 100	> 100	> 100	> 100
